According to patent publication US20080051418A1, “Arylalkanoic Acid Derivative” (priority 2004, published 2008):

What was measured:
PPARδ-RXRα heterodimer = biological target: T1, PPARδ-RXRα heterodimer (Homo sapiens, UniProt Q03181); test: PPARδ-RXRα heterodimer ligand activity (luciferase reporter); type: cell-based; details: transformant of Reference Example 9a of WO03/099793, 36-48 hr, concentration showing 50% of the maximum induction rate
T1 construct: expressed in transfected cells
T1 sequence (Q03181 1-441): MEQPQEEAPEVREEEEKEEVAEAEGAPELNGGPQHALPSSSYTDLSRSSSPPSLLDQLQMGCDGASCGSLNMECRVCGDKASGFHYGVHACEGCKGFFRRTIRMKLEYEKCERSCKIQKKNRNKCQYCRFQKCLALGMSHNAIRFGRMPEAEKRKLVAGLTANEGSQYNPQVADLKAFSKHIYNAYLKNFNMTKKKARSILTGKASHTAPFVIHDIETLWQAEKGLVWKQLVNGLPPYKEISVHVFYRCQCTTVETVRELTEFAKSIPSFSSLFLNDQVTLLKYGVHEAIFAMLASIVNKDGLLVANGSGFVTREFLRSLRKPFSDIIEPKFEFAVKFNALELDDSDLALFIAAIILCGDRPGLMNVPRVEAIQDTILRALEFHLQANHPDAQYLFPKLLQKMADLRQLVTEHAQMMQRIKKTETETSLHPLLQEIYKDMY
T1 sequence (P19793 1-462 partner): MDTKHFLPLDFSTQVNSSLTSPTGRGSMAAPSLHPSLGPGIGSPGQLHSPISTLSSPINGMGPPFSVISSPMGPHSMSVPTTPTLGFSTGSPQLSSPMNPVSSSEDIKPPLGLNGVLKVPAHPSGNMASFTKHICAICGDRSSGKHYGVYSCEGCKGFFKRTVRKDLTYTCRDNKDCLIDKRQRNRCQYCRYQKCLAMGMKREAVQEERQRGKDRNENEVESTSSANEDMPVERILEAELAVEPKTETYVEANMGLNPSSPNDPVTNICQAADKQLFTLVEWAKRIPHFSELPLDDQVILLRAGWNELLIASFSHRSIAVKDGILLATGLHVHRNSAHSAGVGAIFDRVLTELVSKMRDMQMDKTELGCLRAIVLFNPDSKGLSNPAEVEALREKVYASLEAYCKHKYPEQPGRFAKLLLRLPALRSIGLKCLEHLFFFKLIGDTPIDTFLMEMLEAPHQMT
Experimental: The transformant described in Reference Example 9a of WO03/099793 was suspended in a DMEM medium [manufactured by Life technologies, Inc., US] containing 0.1% fatty acid-free bovine serum albumin (BSA) (manufactured by Wako Pure Chemical Industries, Ltd.), and inoculated to each well of a 96 well white plate [manufactured by Corning Coster Corporation, US] by 80 μl to 1×10^4 cells/well. Then, the test compound (20 μl) was added, and cultured under the conditions of 37° C., 5% CO2 for 36-48 hr. The medium was removed from the 96 well white plate, 40 μl of PicaGene LT 7.5 (manufactured by Wako Pure Chemical Industries, Ltd.) diluted 2-fold with HBSS (HANKS' BALANCED SALT SOLUTION) [manufactured by BIO WHITTAKER, US] was added and, after stirring, the luciferase activity was determined using the 1420 ARVO Multilabel Counter [manufactured by PerkinElmer, US].
(§1) The induction rate was calculated from the luciferase activity of each test compound based on the luciferase activity of the test compound non-administration group as 1. The test compound concentration and the induction rate were analyzed by PRISM [manufactured by GraphPad Software, Inc., US] to calculate EC50 value (compound concentration showing 50% of the maximum value of induction rate) of the test compound.

PPARγ-RXRα heterodimer = biological target: T2, PPARγ-RXRα heterodimer (Homo sapiens, UniProt P37231); test: PPARγ-RXRα heterodimer ligand activity (luciferase reporter); type: cell-based; details: PPARγ:RXRα:4ERPP/CHO-K1 cells, 18-24 hr, concentration showing 50% of the maximum induction rate
T2 construct: expressed in transfected cells; host or cells: CHO-K1
T2 sequence (P37231 1-505): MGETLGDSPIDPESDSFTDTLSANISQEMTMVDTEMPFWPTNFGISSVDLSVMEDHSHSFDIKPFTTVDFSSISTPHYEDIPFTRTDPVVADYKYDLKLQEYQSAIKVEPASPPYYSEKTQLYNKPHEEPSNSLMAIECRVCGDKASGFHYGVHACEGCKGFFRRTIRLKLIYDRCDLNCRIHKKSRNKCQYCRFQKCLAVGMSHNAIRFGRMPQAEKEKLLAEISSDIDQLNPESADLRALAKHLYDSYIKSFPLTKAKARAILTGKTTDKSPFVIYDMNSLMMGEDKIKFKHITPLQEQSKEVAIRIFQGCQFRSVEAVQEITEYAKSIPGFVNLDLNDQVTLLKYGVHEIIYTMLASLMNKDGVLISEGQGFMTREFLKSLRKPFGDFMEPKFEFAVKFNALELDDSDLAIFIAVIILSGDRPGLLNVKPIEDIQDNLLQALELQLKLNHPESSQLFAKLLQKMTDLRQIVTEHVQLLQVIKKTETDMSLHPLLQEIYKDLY
T2 sequence (P19793 1-462 partner): T1 sequence (P19793 1-462 partner)
Experimental: The PPARγ:RXRα:4ERPP/CHO-K1 cells described in WO03/099793 were cultured in a Ham F12 medium [manufactured by Life Technologies, Inc., US] containing 10% calf fetal serum [manufactured by Life Technologies, Inc., US], sown in a 96-well white plate [manufactured by Corning Coster Corporation, US] at 2×10^4 cells/well, and incubated overnight in a carbon dioxide gas incubator at 37° C.
Then, the medium was removed from the 96 well white plate, 80 μl of Ham F12 medium containing 0.1% fatty acid-free bovine serum albumin (BSA) and a test compound (20 μl) were added, and the cells were incubated for 18-24 hr in a carbon dioxide gas incubator at 37° C. The medium was removed, 40 μl of PicaGene 7.5 (manufactured by Wako Pure Chemical Industries, Ltd.) diluted 2-fold with HBSS (HANKS' BALANCED SALT SOLUTION) [manufactured by BIO WHITTAKER, US] was added. After stirring, the luciferase activity was determined using the 1420 ARVO Multilabel Counter [manufactured by PerkinElmer, US].
as §1

SMILES | EC50 (PPARδ-RXRα heterodimer) [nM] | melting point [°C] | EC50 (PPARγ-RXRα heterodimer) [nM]
COc1cccc(CC(=O)O)c1OCCCc1cc(OC(C)C)nn1Cc1ccc(C(F)(F)F)cc1Cl [Example 66, [2-(3-{1-[2-chloro-4-(trifluoromethyl)benzyl]-3-isopropoxy-1H-pyrazol-5-yl}propoxy)-3-methoxyphenyl]acetic acid] | 2.8 | 98 to 99 | 1.2
COc1cccc(CC(=O)O)c1OCCCc1cc(OC(C)C)nn1Cc1ccc(Cl)cc1C [Example 68, (2-{3-[1-(4-chloro-2-methylbenzyl)-3-isopropoxy-1H-pyrazol-5-yl]propoxy}-3-methoxyphenyl)acetic acid] | 74 | 108 to 109 | 6
COc1cccc(CC(=O)O)c1OCCCc1cc(OC(C)C)nn1Cc1ccc(Cl)cc1OC(C)C [Example 70, (2-{3-[1-(4-chloro-2-isopropoxybenzyl)-3-isopropoxy-1H-pyrazol-5-yl]propoxy}-3-methoxyphenyl)acetic acid] | 60 |  | 
COc1cccc(CC(=O)O)c1OCCCc1ccc(Oc2ccc(C(F)(F)F)cn2)cc1OC(C)C [Example 101, {2-[3-(2-isopropoxy-4-{[5-(trifluoromethyl)pyridin-2-yl]oxy}phenyl)propoxy]-3-methoxyphenyl}acetic acid] | 44 |  | 
CCCOc1cc(Oc2ccc(C(F)(F)F)cn2)ccc1CCCOc1c(CC(=O)O)cccc1OC [Example 102, {2-[3-(2-propoxy-4-{[5-(trifluoromethyl)pyridin-2-yl]oxy}phenyl)propoxy]-3-methoxyphenyl}acetic acid] | 54 |  | 
COc1cccc(CC(=O)O)c1OCCCc1ccc(OC(C)C)cc1Oc1ncc(Cl)cc1Cl [Example 119, [2-(3-{2-[(3,5-dichloropyridin-2-yl)oxy]-4-isopropoxyphenyl}propoxy)-3-methoxyphenyl]acetic acid] | 39 | 92 to 93 | 
CC(C)Oc1ccc(CCCOc2ncccc2CC(=O)O)c(Oc2ncc(Cl)cc2Cl)c1 [Example 121, [2-(3-{2-[(3,5-dichloropyridin-2-yl)oxy]-4-isopropoxyphenyl}propoxy)pyridin-3-yl]acetic acid] | 7.6 | 84 to 85 | 3.3
CC(C)Oc1ccc(CCCOc2cc(CCC(=O)O)n(-c3ccccc3)n2)c(Oc2ncc(Cl)cc2Cl)c1 [Example 138, 3-[3-(3-{2-[(3,5-dichloropyridin-2-yl)oxy]-4-isopropoxyphenyl}propoxy)-1-phenyl-1H-pyrazol-5-yl]propanoic acid] | 4 |  | 1.2
CC(C)Oc1ccc(CCCOc2cc(CCC(=O)O)n(C(C)C)n2)c(Oc2ncc(C(F)(F)F)cc2Cl)c1 [Example 142, 3-{3-[3-(2-{[3-chloro-5-(trifluoromethyl)pyridin-2-yl]oxy}-4-isopropoxyphenyl)propoxy]-1-isopropyl-1H-pyrazol-5-yl}propanoic acid] | 14 | 127.5 to 128.5 | 7

More lines, now with the values ahead:

EC50 (PPARδ-RXRα heterodimer) [nM] | melting point [°C] | EC50 (PPARγ-RXRα heterodimer) [nM] | SMILES
57 | 108 to 109 | 0.57 | COCOc1ccc(CCCOc2nn(Cc3ccccc3)cc2CC(=O)O)c(Oc2ncc(C(F)(F)F)cc2Cl)c1 [Example 112, (3-{3-[2-{[3-chloro-5-(trifluoromethyl)pyridin-2-yl]oxy}-4-(methoxymethoxy)phenyl]propoxy}-1-benzyl-1H-pyrazol-4-yl)acetic acid]
44 |  |  | CCCOc1ccc(CCCOc2nn(C)cc2CC(=O)O)c(Oc2ncc(C(F)(F)F)cc2Cl)c1 [Example 113, {3-[3-(2-{[3-chloro-5-(trifluoromethyl)pyridin-2-yl]oxy}-4-propoxyphenyl)propoxy]-1-methyl-1H-pyrazol-4-yl}acetic acid]
25 |  |  | CCCOc1ccc(CCCOc2nn(Cc3ccccc3)cc2CC(=O)O)c(Oc2ncc(C(F)(F)F)cc2Cl)c1 [Example 114, {3-[3-(2-{[3-chloro-5-(trifluoromethyl)pyridin-2-yl]oxy}-4-propoxyphenyl)propoxy]-1-benzyl-1H-pyrazol-4-yl}acetic acid]
2.5 |  |  | COc1cccc(CC(=O)O)c1OCCCc1ccc(OC(C)C)cc1Oc1ncc(C(F)(F)F)cc1Cl [Example 115, {2-[3-(2-{[3-chloro-5-(trifluoromethyl)pyridin-2-yl]oxy}-4-isopropoxyphenyl)propoxy]-3-methoxyphenyl}acetic acid]
9.3 |  | 1.6 | CC(C)Oc1ccc(CCCOc2nn(C)cc2CC(=O)O)c(Oc2ncc(C(F)(F)F)cc2Cl)c1 [Example 116, {3-[3-(2-{[3-chloro-5-(trifluoromethyl)pyridin-2-yl]oxy}-4-isopropoxyphenyl)propoxy]-1-methyl-1H-pyrazol-4-yl}acetic acid]
9.2 |  | 0.75 | CC(C)Oc1ccc(CCCOc2nn(Cc3ccccc3)cc2CC(=O)O)c(Oc2ncc(C(F)(F)F)cc2Cl)c1 [Example 118, {3-[3-(2-{[3-chloro-5-(trifluoromethyl)pyridin-2-yl]oxy}-4-isopropoxyphenyl)propoxy]-1-benzyl-1H-pyrazol-4-yl}acetic acid]
23 |  | 3.3 | CCn1cc(CC(=O)O)c(OCCCc2ccc(OC(C)C)cc2Oc2ncc(Cl)cc2Cl)n1 [Example 120, [3-(3-{2-[(3,5-dichloropyridin-2-yl)oxy]-4-isopropoxyphenyl}propoxy)-1-ethyl-1H-pyrazol-4-yl]acetic acid]
88 |  | 11 | CC(C)Oc1ccc(CCCOc2nn(C)cc2CC(=O)O)c(Oc2ncc(Cl)cc2Cl)c1 [Example 132, [3-(3-{2-[(3,5-dichloropyridin-2-yl)oxy]-4-isopropoxyphenyl}propoxy)-1-methyl-1H-pyrazol-4-yl]acetic acid]
17 | 88 to 89 | 9 | CC(C)Oc1ccc(CCCOc2cc(CCC(=O)O)n(C)n2)c(Oc2ncc(C(F)(F)F)cc2Cl)c1 [Example 139, 3-{3-[3-(2-{[3-chloro-5-(trifluoromethyl)pyridin-2-yl]oxy}-4-isopropoxyphenyl)propoxy]-1-methyl-1H-pyrazol-5-yl}propanoic acid]
